Patent US7943631B2, “Method of treating drug addiction using dextro-morphine” (MCW Research Foundation, Inc., priority 2007, dated 2011)
Like-named read-outs stand apart in the source and are kept apart here.

What was measured:
[1] = cited from earlier work; for block of the CPP produced by (−)-morphine: Olmstead and Burns 2005; for production of conditioned place preference or aversion: 4 mg/kg s.c., given systemically, Mucha and Herz 1986
mice = assay: Tail-flick response after intrathecal injection, mouse spinal cord; settings: for (−)-morphine-produced tail-flick inhibition after pretreatment given alone (did not affect): 10 μg intrathecal alone, 45 min before (−)-morphine 1 μg, measured 15 min after; for reversal of the (+)-morphine-induced attenuation of (−)-morphine-produced tail-flick inhibition: intrathecal with (+)-morphine 10 pg, BD1047 1-10 μg, (+)-pentazocine 0.1-10 μg, in a dose-dependent manner
[2] = cited from earlier work; for block or reversal of the (+)-morphine-induced attenuation of systemic (−)-morphine-produced antinociception: pretreatment
rats [3] = assay: Conditioned place preference (CPP), drugs given systemically; assay type: in vivo, rat; settings: for effect given alone on baseline place conditioning (CPP or conditioned place aversion): 3 μg/kg i.p. alone, rats treated s.c. with saline vehicle
[4] = tested on: extracellular dopamine in the Acb shell; assay: Microdialysis of extracellular dopamine in the Acb shell after microinjection into the VTA, urethane-anesthetized rats; assay type: in vivo, rat
Experimental: Groups of rats were microinjected with endomorphin-1 (1, 3 or 10 μg) or vehicle into the VTA (A). In other groups of rats, (−)-naloxone (4 or 40 ng) or vehicle was co-microinjected into the VTA with endomorphin-1 (10 μg). The perfusates from the microdialysis probe at the nucleus accumbens shell were collected every 15 min from 30 min before microinjection and continuously collected for another 120 min (A) or 105 min (B) after microinjection. The perfusates were then analyzed their dopamine level. […] (B) For the group of rats injected with different dose of (−)-naloxone+endomorphin-1 versus vehicle+endomorphin-1, Finteraction (18, 150)=3.338, Ftreatment (2, 150)=7.671, Ftime (9, 150)=11.17, *P<0.01; only the data of the dopamine level after the 0 min time point were used for the statistic analysis; the group of rats microinjected with vehicle alone in (B) was not included in the statistic analysis.
. The perfusates were then analyzed their dopamine level. […]; only the data of the dopamine level after the 0 min time point were used for statistic analysis; the vehicle pretreatment followed by vehicle microinjected group was not included in the statistic analysis.
Groups of rats were microinjected with a various dose of endomorphin-1 (1, 3 and 10 μg) or vehicle given into the VTA and the release of dopamine from the Acb shell were studied. […] The dopamine level returned to baseline 60 min thereafter (FIG. 8A). To determine if the increased release of dopamine induced by endomorphin-1 is mediated by the stimulation of μ-opioid receptors, the effect of (−)-naloxone on the increased release of dopamine induced by endomorphin-1 was then studied.

rats [5] = tested on: rats
rats [6] = assay: Conditioned place preference, (−)-morphine and (+)-morphine microinjected into the Acb shell; assay type: in vivo, rat

Compound: O=C1CC[C@@]2(O)[C@H]3Cc4ccc(O)c5c4[C@@]2(CCN3CC2CC2)[C@H]1O5 [naltrexone]
- block of the CPP produced by (−)-morphine [1]: blocked

Compound: Br.Br.CN(C)CCN(C)CCc1ccc(Cl)c(Cl)c1 [BD1047, N-[2-(3,4-Dichlorophenyl)ethyl]-N-methyl-2-(dimethylamino)ethylamine dihydrobromide]
- (−)-morphine-produced tail-flick inhibition after pretreatment given alone (did not affect) (mice): 9.19 ± 0.42 s
- reversal of the (+)-morphine-induced attenuation of (−)-morphine-produced tail-flick inhibition (mice): reversed
- block or reversal of the (+)-morphine-induced attenuation of systemic (−)-morphine-produced antinociception ([2]; Wu et al., 2007): blocked or reversed
- effect given alone on the morphine-produced CPP (rats [3]; 3 mg/kg i.p. alone, morphine sulfate 5 mg/kg s.c.): did not affect the morphine-produced CPP
- effect given alone on baseline place preference (rats [3]; 3 mg/kg i.p. alone, rats treated with saline vehicle): nor did it affect the baseline place preference
- reversal of the attenuation of (−)-morphine-produced CPP induced by (+)-morphine (rats [3]; 1, 3 or 6 mg/kg i.p. with (+)-morphine 3 μg/kg, 1 h before morphine sulfate 5 mg/kg s.c.): dose-dependently reversed the attenuation of the morphine-produced CPP

Compound: Endomorphin-1
- extracellular dopamine in the Acb shell ([4]; 10 μg into the VTA, 15 min after injection): caused an increase of the extracellular dopamine in the Acb shell
- time for the dopamine level to return to baseline ([4]; 10 μg into the VTA, thereafter): 60 min

Compound: CN1CCCC1c1cccnc1 (stereo not shown) [nicotine]
- production of conditioned place preference at higher dose (rats [5]; 40 μg microinjected into the Acb): produced less increase of the conditioned place preference than that of 20 μg of nicotine
- production of conditioned place preference (rats [5]; 5 to 20 μg microinjected into the Acb): dose-dependently increased the conditioned place preference

Compound: C=CCN1CC[C@]23c4c5ccc(O)c4O[C@H]2C(=O)CC[C@]3(O)[C@H]1C5 [(+)-naloxone]
- block or reversal of the (+)-morphine-induced attenuation of systemic (−)-morphine-produced antinociception ([2]; Wu et al., 2007): blocked or reversed

Compound: (−)-naloxone
- attenuation of the endomorphin-1-induced increase of extracellular dopamine ([4]; 40 ng co-administered into the VTA with endomorphin-1 10 μg): attenuated the increase of the extracellular dopamine in the Acb shell
- block or reversal of the (+)-morphine-induced attenuation of systemic (−)-morphine-produced antinociception ([2]; Wu et al., 2007): blocked or reversed

Compound: C=CCN1CC[C@]23c4c5ccc(O)c4O[C@H]2/C(=N/N=C2\CC[C@@]4(O)[C@H]6Cc7ccc(O)c8c7[C@@]4(CCN6CC=C)[C@H]2O8)CC[C@@]3(O)[C@H]1C5 [naloxonazine]
- block of the CPP produced by (−)-morphine [1]: blocked

Compound: CC(C)=CCN1CCC2(C)c3cc(O)ccc3CC1C2C (single isomer, unassigned; (+)) [(+)-pentazocine]
- (−)-morphine-produced tail-flick inhibition after pretreatment given alone (did not affect) (mice): 8.89 ± 0.53 s
- reversal of the (+)-morphine-induced attenuation of (−)-morphine-produced tail-flick inhibition (mice): reversed
- effect against morphine, both given spinally ([2]; 13 μg against morphine 700 ng, mice, Mei and Pasternak 2002): without effect against morphine
- effect on (−)-morphine-produced analgesia, systemic administration ([2]; 5 or 10 mg/kg, Chien and Pasternak 1994): antagonizes (−)-morphine-produced analgesia

Compound: CN1CC[C@]23c4c5ccc(O)c4O[C@H]2[C@@H](O)C=C[C@H]3[C@H]1C5.O=S(=O)(O)O [(−)-morphine sulfate, (−)-Morphine sulfate]
- production of CPP at higher dose (rats [3]; rats, s.c., 10 mg/kg): produced no more increase of the CPP
- production of CPP (rats [3]; rats, s.c., 1 and 5 mg/kg): dose-dependently produced CPP
- production of conditioned place preference or aversion [1]: produces marked conditioned place preference
- production of conditioned place preference at higher dose (rats [6]; 10 μg into the Acb shell): produced no further increase of conditioned place preference
- production of conditioned place preference (rats [6]; 2.5 or 5 μg into the Acb shell): dose-dependently produced conditioned place preference

Compound: CN1CC[C@]23c4c5ccc(O)c4O[C@H]2[C@@H](O)C=C[C@H]3[C@H]1C5 [(+)-morphine]
- effect on (−)-morphine-produced tail-flick inhibition (mice; 10 pg intrathecal, 45 min before (−)-morphine 1 μg intrathecal): attenuated the (−)-morphine-produced tail-flick inhibition
- block of the endomorphin-1-induced increase of extracellular dopamine ([4]; 3 pg into the VTA, 45 min before endomorphin-1 10 μg): completely blocked the increase of the extracellular dopamine in the Acb shell
- effect on basal levels of extracellular dopamine ([4]; microinjection into the VTA): did not affect the basal levels of extracellular dopamine in the Acb shell
- attenuation of antinociception produced by (−)-morphine given systemically ([2]; pretreated systemically, Wu et al., 2007): attenuates the antinociception produced by (−)-morphine given systemically
- effect given alone on baseline place conditioning (CPP or conditioned place aversion) (rats [3]): did not affect the baseline place conditioning
- effect given alone on baseline place conditioning (CPP or conditioned place aversion) (rats [3]; listed as dextro-morphine): did not produce CPP nor conditioned place aversion
- attenuation of (−)-morphine-produced CPP at higher dose (rats [3]; i.p. pretreatment 100 μg/kg, 1 h before (−)-morphine sulfate 5 mg/kg s.c.): did not attenuate the (−)-morphine-produced CPP
- attenuation of (−)-morphine-produced CPP (rats [3]; i.p. pretreatment 0.1 to 3 μg/kg, 1 h before (−)-morphine sulfate 5 mg/kg s.c.): dose-dependently attenuated the (−)-morphine-produced CPP
- dose of maximal inhibition of the morphine-produced CPP (U-shaped dose-response curve) (rats [3]; i.p., dose range 0.1 to 100 μg/kg): 3 µg/kg
- production of conditioned place preference or aversion [1]: does not produce any conditioned place preference nor does it produce any conditioned place aversion
- attenuation of (−)-morphine-produced conditioned place preference (rats [6]; 0.1 to 10 pg into the Acb shell, 45 min before (−)-morphine 5 μg, same site): dose-dependently attenuated the (−)-morphine-produced conditioned place preference
- production of conditioned place preference given alone (rats [6]; 3 to 100 pg into the Acb shell, alone): did not produce any conditioned place preference
- attenuation of (−)-morphine-produced conditioned place preference at higher doses (rats [6]; 30, 100 and 1000 pg into the Acb shell, 45 min before (−)-morphine 5 μg): did not attenuate the (+)-morphine-produced conditioned place preference
- dose of maximal inhibition (U-shape dose-response curve) (rats [6]; into the Acb shell, dose range 0.1 to 1000 pg): 3 pg
- block of the nicotine-produced increase of conditioned place preference at single dose (rats [5]; 0.3 pg into the Acb, nicotine 20 μg): completely block the nicotine-produced increase of the conditioned place preference
- block of the nicotine-produced increase of conditioned place preference (rats [5]; pretreatment 0.03 to 3 pg into the Acb, nicotine 20 μg): blocked dose-dependently
